Measured values: patent US20140072557A1, “MEDICINAL AGENT FOR SUPPRESSING MALIGNANT TUMOR METASTASIS” (priority 2011, published 2014)

What was measured:
[1] = test system: A549 cells; experiment: Migration ability, Boyden chamber assay, A549 cells; assay type: cell-based; conditions: 1 μM hANP, TGF-β1 1 ng/mL, 20 hours
Description: Using a 6-well dish, the A549 cells were cultured at 1×10^5 cells/well, and the culture medium was replaced with DMEM culture medium free from FBS the next day. After 24 hours of culture, the cells were divided into 3 groups (the control group, the TGF-β1 group, and the TGF-β1+hANP group), and used in the following experiment.
To the culture medium for the TGF-β+hANP group, the hANP solution was added so that the final concentration of hANP might be 1 μM. For the control group and the TGF-β1 group, the same amount of physiological saline was added to the culture medium. After 2 hours from the addition, the Boyden chamber assay was performed as follows.
DMEM culture medium free from FBS for the control group, the same DMEM culture medium containing TGF-β1 (final concentration: 1 ng/mL) for the TGF-β1 group, and the same DMEM culture medium containing hANP (final concentration: 1 μM) and TGF-β1 (final concentration: 1 ng/mL) for the TGF-β1+hANP group were separately added to each well of a 6-well dish in an amount of 1.5 mL. On the surface of each liquid, a cell culture insert (8.0 μm pore size, made by Becton, Dickinson and Company) was placed, and onto each cell culture insert, 1.5 mL of a cell suspension of A549 cells of each group in FBS-free DMEM (hANP at final concentration of 1 μM was added for the TGF-β1+hANP group) was added and cultured. […]

[2] = test system: cancer cells (A549, H460, H520, H358 cells); experiment: Combined effect of hANP and cisplatin on apoptosis induction in cancer cells; assay type: cell-based; conditions: hANP 1 or 10 μM with cisplatin 1-30 μM, 48 hours
Description: As the cisplatin, CISPLATIN inj. “Maruko” (trade name, Nichi-Iko Pharmaceutical) was used.
Using a 96-well dish, the A549 cells were cultured at 1×10^4 cells/well. The next day, the culture medium was replaced with DMEM culture medium free from FBS. After 24-hours culture, the cells were divided into groups (control group, cisplatin single administration group, 1 μM hANP group, cisplatin+1 μM hANP group, 10 μM hANP group, and cisplatin+10 μM hANP group), and the following experiment was conducted.
To the culture medium, for the hANP addition groups, a hANP solution prepared so that the final concentration of hANP would be 1 or 10 μM was added, whereas for the control group and the cisplatin single administration group, the same amount of physiological saline was added. Further, for the cisplatin addition groups, a cisplatin solution prepared so that the final concentration of cisplatin would be 1, 5, 10, 20, or 30 μM was added (for the control group and the hANP single administration group, the same amount of physiological saline was added). […] 48 hours later, trypan blue staining was performed and the cell viability (number of living cells/total number of all cells) was determined with the use of an automatic cell counter Countess (registered trademark) (Invitrogen). […]

[3] = test system: A549 cells; experiment: Motility, wound healing assay, A549 cells; assay type: cell-based; conditions: 1 μM hANP, TGF-β1 1 ng/mL, 24 hours
Description: Using a 6-well dish, the A549 cells were cultured at 4×10^5 cells/well, and the culture medium was replaced with DMEM culture medium free from FBS the next day. After 24 hours of culture, the cells were divided into 3 groups (the control group, the TGF-(31 group, and the TGF-β1+hANP group), and used in the following experiment.
To the culture medium for the TGF-β1+hANP group, the hANP solution was added so that the final concentration of hANP would be 1 μM. For the control group and the TGF-β1 group, the same amount of physiological saline was added to the culture medium. Two hours later, a wound was created at the center of each well with the use of a 200 μL-pipette tip. Immediately after the wound creation, a photograph of each well was taken under a microscope (FIG. 7A). To the TGF-β+hANP group and the TGF-β1 group, TGF-β1 was added so that the final concentration would be 1 ng/mL. After 24-hour culture, a photograph of the same part was taken again to calculate the average ratio of the wounded area width difference between immediately after the wound creation and after 24-hour culture (migration ratio: % wounded area filled) by the following formula.
Migration ratio (%)=(initial wound width−wound width after 24-hour culture)/(initial wound width)×100

[4] = test system: A549 cells; experiment: Apoptosis induction, cell viability by trypan blue staining, A549 cells; assay type: cell-based; conditions: hANP 1, 5, 10 μM added 4 times, 48 hours
Description: Using a 96-well dish, the A549 cells were cultured at 1×10^4 cells/well. The culture medium was replaced with DMEM culture medium free from FBS the next day, and after 24-hours culture, the following experiment was conducted.
To the culture medium, a hANP solution prepared by serial dilution was added so that the final concentration of hANP would be 1, 5, or 10 μM (for the control group, the same amount of physiological saline was added). Further, 2, 4, and 6 hours later, the same amounts of the hANP solutions at the same concentrations were added (for the control group, the same amount of physiological saline was added) (4 times in total). 48 hours later, trypan blue staining was performed and the cell viability (number of living cells/total number of all cells) was determined with the use of an automatic cell counter Countess (registered trademark) (Invitrogen).

[5] = test system: A549 cells; experiment: Mouse tail vein injection metastasis test, GFP-labeled A549 cells; assay type: in vivo; conditions: hANP 0.5 μg/kg/min by subcutaneous osmotic pump for 4 weeks, observed 8 weeks after injection, Balb/c (nu/nu) mice
Description: Six-week-old male Balb/c (nu/nu) mice were used (purchased from Japan SLC, Inc.).
The osmotic pumps used were MODEL2004 (for 28-day administration) made by ALZET (Cupertino, Calif.).
Mice into which an osmotic pump containing 0.9% physiological saline was subcutaneously implanted in the back were assigned to the control group. Similarly, mice into which an osmotic pump containing hANP prepared for administration at 0.5 μg/kg/min was subcutaneously implanted were assigned to the ANP group. Injection of a tumor cell suspension was performed on the day after the osmotic pump implantation.
As the tumor cells, A549 cell line labeled with GFP (Green Fluorescent Protein) was purchased from Wako Pure Chemical Industries, Ltd., and cultured in RPMI1640 (Life Technologies Corp.) containing 10% FCS under 5% CO2 at 37° C. The cells in a subconfluent state were treated with EDTA-trypsin, centrifuged, and then suspended in serum free DMEM so as to be 1×10^7 cells/mL. The A549 cell suspension (100 μL/body, 1×10^6 cells) was injected to the tail vein of the mice.

CC[C@H](C)[C@@H]1NC(=O)[C@H](CCCNC(=N)N)NC(=O)[C@H](CC(=O)O)NC(=O)[C@H](CCSC)NC(=O)[C@H](CCCNC(=N)N)NC(=O)CNC(=O)CNC(=O)[C@H](Cc2ccccc2)NC(=O)[C@@H](NC(=O)[C@H](CO)NC(=O)[C@H](CO)NC(=O)[C@H](CCCNC(=N)N)NC(=O)[C@H](CCCNC(=N)N)NC(=O)[C@H](CC(C)C)NC(=O)[C@@H](N)CO)CSSC[C@@H](C(=O)N[C@@H](CC(N)=O)C(=O)N[C@@H](CO)C(=O)N[C@@H](Cc2ccccc2)C(=O)N[C@@H](CCCNC(=N)N)C(=O)N[C@@H](Cc2ccc(O)cc2)C(=O)O)NC(=O)CNC(=O)[C@H](CC(C)C)NC(=O)CNC(=O)[C@H](CO)NC(=O)[C@H](CCC(N)=O)NC(=O)[C@H](C)NC(=O)CNC1=O [hANP, carperitide]
migration ability (cells on lower surface of insert) [1]: significantly suppressed | apoptosis-inducing activity in combination with cisplatin [2]: enhanced | motility (migration ratio, % wounded area filled) [3]: significantly suppressed | number of living cancer cells (cell viability) [4]: decreased in a hANP-concentration-dependent manner | lung metastasis (number of nodules) [5]: significantly suppressed
